Test results: patent publication US20020026053A1, “Novel 3-(substituted) -2- indolinones compounds and use thereof as inhibitors of protein kinase activity” (priority 1997, published 2002)

Target: T1, EGFR (Homo sapiens, UniProt P00533)
T1 construct: endogenous in cells; host or cells: A431 cells (lysate, captured with SUMO1 anti-EGFR antibody)
Assay: Biochemical EGFR Assay
Parameters: concentration or dose not given beside the values
Conditions: protocol P.167
In short: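 Readout is ABTS absorbance at 410 nm after anti-phosphotyrosine and HRP-antibody detection of EGFR autophosphorylation. The kinase was immunocaptured from A431 lysate, exposed 30 min to test compound diluted 1:10 in TBS, then phosphorylated for 5 min with ATP/MnCl2 before an EDTA stop.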

T1 sequence (P00533 25-1210): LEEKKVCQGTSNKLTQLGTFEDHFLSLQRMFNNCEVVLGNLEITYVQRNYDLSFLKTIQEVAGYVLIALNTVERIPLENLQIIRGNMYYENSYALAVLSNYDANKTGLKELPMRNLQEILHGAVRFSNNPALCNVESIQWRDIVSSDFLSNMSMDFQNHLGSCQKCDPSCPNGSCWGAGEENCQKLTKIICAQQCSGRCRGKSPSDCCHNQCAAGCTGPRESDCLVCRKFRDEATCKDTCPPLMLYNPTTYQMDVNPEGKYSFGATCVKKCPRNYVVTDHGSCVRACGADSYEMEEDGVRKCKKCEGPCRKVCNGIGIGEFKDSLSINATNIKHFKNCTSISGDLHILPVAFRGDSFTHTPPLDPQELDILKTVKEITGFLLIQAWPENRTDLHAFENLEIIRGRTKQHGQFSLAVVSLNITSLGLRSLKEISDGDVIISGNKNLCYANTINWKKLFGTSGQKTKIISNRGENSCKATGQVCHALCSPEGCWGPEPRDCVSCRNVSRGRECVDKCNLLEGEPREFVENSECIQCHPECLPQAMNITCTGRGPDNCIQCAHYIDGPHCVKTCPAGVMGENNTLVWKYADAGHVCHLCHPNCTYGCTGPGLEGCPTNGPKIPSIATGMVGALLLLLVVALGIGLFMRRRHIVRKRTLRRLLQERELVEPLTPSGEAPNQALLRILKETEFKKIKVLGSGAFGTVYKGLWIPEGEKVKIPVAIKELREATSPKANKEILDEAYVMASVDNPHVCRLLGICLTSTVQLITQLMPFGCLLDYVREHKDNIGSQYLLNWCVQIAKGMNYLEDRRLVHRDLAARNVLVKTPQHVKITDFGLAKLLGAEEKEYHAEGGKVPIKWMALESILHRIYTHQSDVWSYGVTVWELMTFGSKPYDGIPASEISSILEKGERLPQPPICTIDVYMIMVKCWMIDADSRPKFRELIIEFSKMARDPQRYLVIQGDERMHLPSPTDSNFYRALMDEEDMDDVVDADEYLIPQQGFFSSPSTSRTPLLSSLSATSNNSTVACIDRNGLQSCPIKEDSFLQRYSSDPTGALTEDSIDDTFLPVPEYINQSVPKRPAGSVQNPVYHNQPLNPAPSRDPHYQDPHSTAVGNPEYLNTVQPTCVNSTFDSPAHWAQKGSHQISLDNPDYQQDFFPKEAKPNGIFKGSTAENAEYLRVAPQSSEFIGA

In order of rising “Biochem EGFR % Inhibition (P.167)” value:
1. CN(C)CCCOc1ccc(C=C2C(=O)Nc3ccc(CCCl)cc32)cc1 [10739/G09]  −39.8%
2. O=C1Nc2ccc(S(=O)(=O)N3CCOCC3)cc2C1=Cc1ccc(CO)o1 [10739/F11]  −38.5%
3. O=C1Nc2ccc(CCCl)cc2C1=Cc1ccoc1 [10739/G10]  −38.1%
4. O=C1Nc2ccc(S(=O)(=O)Nc3ccc(C(F)(F)F)cc3)cc2C1=Cc1ccc(OCc2ccccc2)cc1 [10739/E04]  −35.5%
5. O=C1Nc2ccc(CCCl)cc2C1=Cc1ccc(O)cc1Cl [10739/G06]  −31.2%
6. O=C1Nc2ccc(S(=O)(=O)Nc3ccc(C(F)(F)F)cc3)cc2C1=Cc1ccc(CO)o1 [10739/E11]  −23.4%
7. O=C1Nc2ccc(CCCl)cc2C1=Cc1ccc(CO)o1 [10739/G11]  −23.2%
8. O=C1Nc2ccc(CCCl)cc2C1=CC1COc2ccccc2O1 (centres unmarked) [10739/G05]  −23.0%
9. Cc1c(Br)cc(Br)c2c1C(=Cc1ccc(O)cc1Cl)C(=O)N2 [10739/H06]  −22.1%
10. Cc1c(Br)cc(Br)c2c1C(=Cc1ccc(OCc3ccccc3)cc1)C(=O)N2 [10739/H04]  −21.9%
11. CNS(=O)(=O)c1ccc2c(c1)C(=Cc1ccc(O)cc1Cl)C(=O)N2 [10739/D06]  −19.8%
12. CN(C)CCCOc1ccc(C=C2C(=O)Nc3ccc(S(=O)(=O)N4CCOCC4)cc32)cc1 [10739/F09]  −19.6%
13. COc1ccc(Oc2cccc(C=C3C(=O)Nc4ccc(S(=O)(=O)N5CCOCC5)cc43)c2)cc1 [10739/F08]  −19.1%
14. COc1ccc(Oc2cccc(C=C3C(=O)Nc4ccc(CCCl)cc43)c2)cc1 [10739/G08]  −18.5%
15. COc1ccc(Oc2cccc(C=C3C(=O)Nc4ccc(S(=O)(=O)Nc5ccc(C(F)(F)F)cc5)cc43)c2)cc1 [10739/E08]  −17.4%
16. Cc1c(Br)ccc2c1C(=Cc1ccc(O)cc1Cl)C(=O)N2 [10739/C06]  −17.0%
17. Cc1c(Br)ccc2c1C(=Cc1ccc(CO)o1)C(=O)N2 [10739/C11]  −17.0%
18. CNS(=O)(=O)c1ccc2c(c1)C(=Cc1cccc(Oc3ccc(OC)cc3)c1)C(=O)N2 [10739/D08]  −16.8%
19. O=C1Nc2ccc(S(=O)(=O)N3CCOCC3)cc2C1=Cc1ccoc1 [10739/F10]  −16.8%
20. O=C1Nc2ccc(S(=O)(=O)N3CCOCC3)cc2C1=CC1COc2ccccc2O1 (centres unmarked) [10739/F05]  −16.4%
21. O=C1Nc2ccc(S(=O)(=O)N3CCOCC3)cc2C1=Cc1ccc(O)cc1Cl [10739/F06]  −15.3%
22. CNS(=O)(=O)c1ccc2c(c1)C(=Cc1ccc(OCCCN(C)C)cc1)C(=O)N2 [10739/D09]  −15.1%
23. Cc1c(Br)cc(Br)c2c1C(=Cc1cc(O)cc(O)c1)C(=O)N2 [10738/H07]  −13.4%
24. CCCOc1ccc(C=C2C(=O)Nc3c(Br)cc(Br)c(C)c32)cc1 [10738/H11]  −13.4%
25. O=C1Nc2ccc(CCCl)cc2C1=Cc1ccc(OCc2ccccc2)cc1 [10739/G04]  −12.3%
26. COc1ccc(C=C2C(=O)Nc3c(Br)cc(Br)c(C)c32)cc1C [10739/H02]  −12.3%
27. Cc1c(Br)cc(Br)c2c1C(=Cc1ccc(Cl)c(Cl)c1)C(=O)N2 [10738/H08]  −12.1%
28. O=C1Nc2ccc(S(=O)(=O)Nc3ccc(C(F)(F)F)cc3)cc2C1=CC1COc2ccccc2O1 (centres unmarked) [10739/E05]  −11.3%
29. O=C1Nc2ccc(S(=O)(=O)N3CCOCC3)cc2C1=Cc1cccc(OCc2ccccc2)c1 [10739/F03]  −10.8%
30. CNS(=O)(=O)c1ccc2c(c1)C(=CC1COc3ccccc3O1)C(=O)N2 (centres unmarked) [10739/D05]  −10.6%
31. O=C1Nc2c(Br)cc(Br)cc2C1=Cc1ccc(CO)o1 [10739/A11]  −8.7%
32. COc1ccc(C=C2C(=O)Nc3ccc(S(=O)(=O)Nc4ccc(C(F)(F)F)cc4)cc32)cc1C [10739/E02]  −8.3%
33. Cc1c(Br)ccc2c1C(=Cc1ccoc1)C(=O)N2 [10739/C10]  −7.0%
34. O=C1Nc2ccc(S(=O)(=O)N3CCOCC3)cc2C1=Cc1ccc(OCc2ccccc2)cc1 [10739/F04]  −7.0%
35. CNS(=O)(=O)c1ccc2c(c1)C(=Cc1ccc(OCc3ccccc3)cc1)C(=O)N2 [10739/D04]  −6.4%
36. O=C1Nc2c(Br)cc(Br)cc2C1=Cc1ccc(OCc2ccccc2)cc1 [10739/A04]  −6.3%
37. O=C1Nc2c(Br)cc(Br)cc2C1=Cc1ccc(O)cc1Cl [10739/A06]  −5.5%
38. COc1ccc(C=C2C(=O)Nc3ccc(CCCl)cc32)cc1C [10739/G02]  −5.1%
39. O=C1Nc2ccc(I)cc2C1=Cc1ccc(CO)o1 [10739/B11]  −4.2%
40. COc1ccc(C=C2C(=O)Nc3ccc(S(=O)(=O)N4CCOCC4)cc32)cc1C [10739/F02]  −3.6%
41. Cc1c(Br)ccc2c1C(=Cc1ccc(OCCCN(C)C)cc1)C(=O)N2 [10739/C09]  −2.7%
42. O=C1Nc2ccc(I)cc2C1=Cc1ccoc1 [10739/B10]  −2.1%
43. COc1ccc(C=C2C(=O)Nc3ccc(Br)c(C)c32)cc1C [10739/C02]  −1.7%
44. Cc1c(Br)ccc2c1C(=CC1COc3ccccc3O1)C(=O)N2 (centres unmarked) [10739/C05]  −1.7%
45. COc1ccc(Oc2cccc(C=C3C(=O)Nc4ccc(Br)c(C)c43)c2)cc1 [10739/C08]  −1.7%
46. COc1ccc(C=C2C(=O)Nc3c(Br)cc(Br)cc32)cc1C [10739/A02]  0.0%
47. Cc1c(Br)ccc2c1C(=Cc1ccc(OCc3ccccc3)cc1)C(=O)N2 [10739/C04]  1.5%
48. COc1ccccc1C=C1C(=O)Nc2c(Br)cc(Br)c(C)c21 [10738/H09]  1.6%
49. O=C1Nc2ccc(CCCl)cc2C1=Cc1cccc(OCc2ccccc2)c1 [10739/G03]  2.4%
50. CNS(=O)(=O)c1ccc2c(c1)C(=Cc1ccc(OC)c(C)c1)C(=O)N2 [10739/D02]  2.6%
51. O=C1Nc2ccc(S(=O)(=O)Nc3ccc(C(F)(F)F)cc3)cc2C1=Cc1cccc(OCc2ccccc2)c1 [10739/E03]  4.9%
52. O=C1Nc2c(Br)cc(Br)cc2C1=Cc1cccc(OCc2ccccc2)c1 [10739/A03]  5.1%
53. COc1ccc(Oc2cccc(C=C3C(=O)Nc4c(Br)cc(Br)cc43)c2)cc1 [10739/A08]  6.2%
54. O=C1Nc2ccc(I)cc2C1=Cc1ccc(O)cc1Cl [10739/B06]  9.2%
55. O=C1Nc2ccc(I)cc2C1=Cc1cccc(OCc2ccccc2)c1 [10739/B03]  9.6%
56. O=C1Nc2ccc(CCCl)cc2C1=Cc1cc(O)c(O)c(O)c1 [10739/G07]  10.0%
57. Cc1c(Br)cc(Br)c2c1C(=Cc1cccc(OCc3ccccc3)c1)C(=O)N2 [10739/H03]  10.0%
58. O=C1Nc2c(Br)cc(Br)cc2C1=CC1COc2ccccc2O1 (centres unmarked) [10739/A05]  10.7%
59. Cc1c(Br)cc(Br)c2c1C(=Cc1ccc(C(C)C)cc1)C(=O)N2 [10738/H10]  11.4%
60. CN(C)CCCOc1ccc(C=C2C(=O)Nc3ccc(I)cc32)cc1 [10739/B09]  11.9%
61. CN(C)CCCOc1ccc(C=C2C(=O)Nc3ccc(S(=O)(=O)Nc4ccc(C(F)(F)F)cc4)cc32)cc1 [10739/E09]  15.2%
62. O=C1Nc2ccc(I)cc2C1=Cc1ccc(OCc2ccccc2)cc1 [10739/B04]  17.5%
63. O=C1Nc2ccc(S(=O)(=O)Nc3ccc(C(F)(F)F)cc3)cc2C1=Cc1ccoc1 [10739/E10]  17.5%
64. COc1ccc(C=C2C(=O)Nc3ccc(I)cc32)cc1C [10739/B02]  18.1%
65. Cc1c(Br)ccc2c1C(=Cc1cccc(OCc3ccccc3)c1)C(=O)N2 [10739/C03]  18.3%
66. COc1ccc(Oc2cccc(C=C3C(=O)Nc4ccc(I)cc43)c2)cc1 [10739/B08]  19.8%
67. O=C1Nc2c(Br)cc(Br)cc2C1=Cc1ccoc1 [10739/A10]  20.7%
68. CNS(=O)(=O)c1ccc2c(c1)C(=Cc1cc(O)c(O)c(O)c1)C(=O)N2 [10739/D07]  21.1%
69. CNS(=O)(=O)c1ccc2c(c1)C(=Cc1cccc(OCc3ccccc3)c1)C(=O)N2 [10739/D03]  24.7%
70. CN(C)CCCOc1ccc(C=C2C(=O)Nc3c(Br)cc(Br)cc32)cc1 [10739/A09]  26.9%
71. O=C1Nc2ccc(I)cc2C1=CC1COc2ccccc2O1 (centres unmarked) [10739/B05]  32.0%
72. O=C1Nc2ccc(S(=O)(=O)Nc3ccc(C(F)(F)F)cc3)cc2C1=Cc1ccc(O)cc1Cl [10739/E06]  33.5%
73. Cc1c(Br)ccc2c1C(=Cc1cc(O)c(O)c(O)c1)C(=O)N2 [10739/C07]  34.7%
74. O=C1Nc2ccc(I)cc2C1=Cc1cc(O)c(O)c(O)c1 [10739/B07]  59.4%
75. O=C1Nc2ccc(S(=O)(=O)N3CCOCC3)cc2C1=Cc1cc(O)c(O)c(O)c1 [10739/F07]  62.4%
76. O=C1Nc2c(Br)cc(Br)cc2C1=Cc1cc(O)c(O)c(O)c1 [10739/A07]  65.6%
77. O=C1Nc2ccc(S(=O)(=O)Nc3ccc(C(F)(F)F)cc3)cc2C1=Cc1cc(O)c(O)c(O)c1 [10739/E07]  79.6%
